Experimental data taken from patent publication US7122543B2, “Substituted benzoic acid derivatives having NF-κB inhibiting action” (Daiichi Suntory Pharma Co., Ltd., priority 2001, dated 2006).
In brackets after ≈: the same amount, converted by molar mass.

Tested on: NF-κB
Assay: NF-κB luciferase reporter assay in A549/NF-κBLuc cells stimulated with IL-1β
Format: cell-based, human
Protocol: Effects of Compounds on Human Lung Cancer A549 Cells (A549/NF-κBLuc) Stably Transfected with Luciferase Plasmid (pNFκB-Luc, Stratagene, U.S.A.) Having the NF-κB Regulatory Sequence
Using lipofectamine (Lifetech Oriental K.K., Tokyo), pNFκB-Luc were cotransfected with pSV2neo (Clontech, U.S.A.) into A549 cells (ATCC CCL185) according to the conventional method, and A549/NF-κBLuc stably transfected with pNFκB-Luc were selected by adding G418 sulfate (1 mg/ml, Lifetech Oriental K.K.) to the culture medium.
A compound prepared in an Example was added to A549/NF-κBLuc, then IL-1β which was able to activate the NF-κB was added at 1 hour thereafter and incubation was continued for 3 hours more. It has been made clear by using a luciferase activity as an index that the compound obtained in the Example suppresses the activation of NF-κB by stimulated with IL-1β.

[1] = Homo sapiens, A549, A549/NF-κBLuc cells, compound added 1 hour before IL-1β, 3 hours more incubation, luciferase activity as index

Structure (SMILES)	IC50 [1]	also measured
COC1=C(OC)C(=O)C(Cc2ccc(-c3ccncc3)c(C(=O)Nc3ccc(C(F)(F)F)cc3)c2)=C(C)C1=O [Example 61, N-[5-(5,6-Dimethoxy-3-methyl-1,4-benzoquinon-2-yl)methyl-2-(4-pyridyl)benzoyl]-4-trifluoromethylaniline]	> 30 µg/mL	
COC1=C(OC)C(=O)C(Cc2ccc(-c3ccccc3)c(C(=O)Nc3ccc(C(F)(F)F)cc3)c2)=C(C)C1=O [Example 53, N-[5-(5,6-Dimethoxy-3-methyl-1,4-benzoquinon-2-yl)methyl-2-phenylbenzoyl]-4-trifluoromethylaniline]	> 30 µg/mL	
COC1=C(OC)C(=O)C(Cc2ccc(-c3cccc(OC)c3)c(C(=O)N3CCOCC3)c2)=C(C)C1=O [Example 66, N-[5-(5,6-Dimethoxy-3-methyl-1,4-benzoquinon-2-yl)methyl-2-(3-methoxyphenyl)benzoyl]-morpholine]	42 µg/mL	IC50 (Homo sapiens, A549, same value printed in parentheses in μM, A549/NF-κBLuc cells, IL-1β stimulation, luciferase activity): 85 µM
COC1=C(OC)C(=O)C(Cc2ccc(-c3ccncc3)c(C(=O)N3CCCCC3)c2)=C(C)C1=O [Example 58a, N-[5-(5,6-Dimethoxy-3-methyl-1,4-benzoquinon-2-yl)methyl-2-(4-pyridyl)benzoyl]piperidine]		IC50 value (A549/NF-κBLuc cells, compound added 1 hour before IL-1β, 3 hours more incubation, luciferase activity as index): 15 µg/mL (≈ 32.6 µM); IC50 (same value printed in parentheses in μM, A549/NF-κBLuc cells, IL-1β stimulation, luciferase activity): 30 µM
COC1=C(OC)C(=O)C(Cc2ccc(-c3cccnc3)c(C(=O)Nc3ccc(OC)cc3)c2)=C(C)C1=O [Example 56, N-[5-(5,6-Dimethoxy-3-methyl-1,4-benzoquinon-2-yl)methyl-2-(3-pyridyl)benzoyl]-4-methoxy-aniline]	> 45 µg/mL	
COC1=C(OC)C(=O)C(Cc2ccc(-c3ccncc3)c(C(=O)O)c2)=C(C)C1=O [Example 39, 5-(5,6-Dimethoxy-3-methyl-1,4-benzoquinon-2-yl)methyl-2-(4-pyridyl)benzoic acid]	> 30 µg/mL	
COC1=C(OC)C(=O)C(Cc2ccc(-c3ccccc3OC)c(C(=O)Nc3ccc(OC)cc3)c2)=C(C)C1=O [Example 68, N-[5-(5,6-Dimethoxy-3-methyl-1,4-benzoquinon-2-yl)methyl-2-(2-methoxyphenyl)benzoyl]-4-methoxyaniline]	> 45 µg/mL	
COc1c(C)c(Cc2ccc(-c3ccncc3)c(C(=O)O)c2)c(OC)c(OC)c1OC [Example 15, 5-(3,4,5,6-Tetramethoxy-2-methylbenzyl)-2-(4-pyridyl)benzoic acid]	> 15 µg/mL	
